Assay results published in ChEMBL document CHEMBL5360546, “Identification and characterisation of the tegument-expressed aldehyde dehydrogenase SmALDH_312 of Schistosoma mansoni, a target of disulfiram” (Eur J Med Chem, 2023).
Activity calls are given as the source filed them. The calls are words filed in the database; no cut-off is given here.

How the values were obtained:
Schistosoma mansoni [1] = test: Antischistosomal activity against Schistosoma mansoni couple assessed as reduction worm motility at 10 to 200 uM measured at day 3; format: functional, organism-based; conditions: dose 10-200 µM, time 3.0 day
Schistosoma mansoni [2] = test: Antischistosomal activity against Schistosoma mansoni couple assessed as reduction in couple attachment at 10 uM measured at day 3 relative to control; format: functional; design: scale not given: the % may be the effect or the level left; conditions: time 3 day
[3] = Inhibition of recombinant Schistosoma mansoni ALDH312 expressed in baculovirus Sf9 cells at 100 uM in presence of NADPH relative to control
Schistosoma mansoni [4] = test: Downregulation of Smnanos1 transcript level in Schistosoma mansoni male at 10 to 25 uM measured after 72 hrs by qRT-PCR analysis; format: functional; conditions: dose 10-25 µM
Schistosoma mansoni [5] = test: Induction of morphological changes in Schistosoma mansoni couple assessed as tubercles rupture at 10 to 25 uM by confocal laser scanning microscopy analysis; format: functional, organism-based; conditions: dose 10-25 µM
Schistosoma mansoni [6] = test: Antischistosomal activity against Schistosoma mansoni couple assessed as couple separation at 100 uM measured at day 1 relative to control; format: functional; conditions: time 1 day
Schistosoma mansoni [7] = test: Induction of morphological changes in Schistosoma mansoni couple assessed as loss of structural integrity in reproductive organs at 25 uM by scanning electron microscopy analysis; format: functional, organism-based
Schistosoma mansoni [8] = test: Downregulation of Smaldh312 level in Schistosoma mansoni male at 10 uM measured after 72 hrs by qRT-PCR analysis; format: functional
Schistosoma mansoni [9] = test: Antischistosomal activity against Schistosoma mansoni couple assessed as couple separation at 1 uM measured after 24 to 72 hrs; format: functional, organism-based; conditions: time 24-72 hrs
Schistosoma mansoni [10] = test: Induction of morphological changes in female Schistosoma mansoni assessed as degeneration of oocytes at 25 uM by scanning electron microscopy analysis; format: functional, organism-based
Schistosoma mansoni [11] = test: Induction of morphological changes in male Schistosoma mansoni assessed as formation of blebs at 25 uM by confocal laser scanning microscopy analysis; format: functional, organism-based
Schistosoma mansoni [12] = test: Antischistosomal activity against Schistosoma mansoni couple assessed as couple separation at 25 uM measured at day 1 relative to control; format: functional; conditions: time 1 day
Schistosoma mansoni [13] = test: Upregulation of Smnanos2 transcript level in Schistosoma mansoni male at 10 uM measured after 72 hrs by qRT-PCR analysis; format: functional
Schistosoma mansoni [14] = test: Inhibition of cell proliferation in Schistosoma mansoni couple assessed as reduction in EdU positive number measured after 3 days by Hoechst 33342 staining based analysis; format: functional; conditions: dose 10-25 µM, time 3.0 day
Schistosoma mansoni [15] = test: Induction of morphological changes in Schistosoma mansoni couple assessed as effect on gonads tegument at 10 uM by confocal laser scanning microscopy analysis; format: functional, organism-based
Schistosoma mansoni [16] = test: Induction of morphological changes in Schistosoma mansoni couple assessed as swelling of tegument at 10 to 25 uM by confocal laser scanning microscopy analysis; format: functional, organism-based; conditions: dose 10-25 µM
Schistosoma mansoni [17] = test: Induction of morphological changes in Schistosoma mansoni couple assessed as detachment of tegument at 10 to 25 uM by confocal laser scanning microscopy analysis; format: functional, organism-based; conditions: dose 10-25 µM
Schistosoma mansoni [18] = test: Induction of morphological changes in female Schistosoma mansoni assessed as formation of ruptures at 25 uM by confocal laser scanning microscopy analysis; format: functional, organism-based
Schistosoma mansoni [19] = test: Antischistosomal activity against Schistosoma mansoni couple assessed as worm motility at 1 uM measured after 72 hrs; format: functional, organism-based
Schistosoma mansoni [20] = test: Induction of morphological changes in Schistosoma mansoni couple assessed as effect on gonads internal structure at 10 uM by confocal laser scanning microscopy analysis; format: functional, organism-based
Schistosoma mansoni [21] = test: Antischistosomal activity against Schistosoma mansoni larva assessed as lethality at 500 nM measured after 72 hrs by Trypan blue staining based analysis; format: functional, organism-based
Schistosoma mansoni [22] = test: Induction of morphological changes in female Schistosoma mansoni assessed as formation of blebs at 25 uM by confocal laser scanning microscopy analysis; format: functional, organism-based
Schistosoma mansoni [23] = test: Induction of morphological changes in male Schistosoma mansoni assessed as degeneration of spermatogonia at 25 uM by scanning electron microscopy analysis; format: functional, organism-based
Schistosoma mansoni [24] = test: Induction of morphological changes in male Schistosoma mansoni assessed as formation of ruptures at 25 uM by confocal laser scanning microscopy analysis; format: functional, organism-based
[25] = biological target: T1, Aldehyde dehydrogenase, mitochondrial (Homo sapiens) (UniProt P05091); test: Inhibition of human ALDH2 at 100 uM in presence of NADPH relative to control
T1 sequence (whole entry): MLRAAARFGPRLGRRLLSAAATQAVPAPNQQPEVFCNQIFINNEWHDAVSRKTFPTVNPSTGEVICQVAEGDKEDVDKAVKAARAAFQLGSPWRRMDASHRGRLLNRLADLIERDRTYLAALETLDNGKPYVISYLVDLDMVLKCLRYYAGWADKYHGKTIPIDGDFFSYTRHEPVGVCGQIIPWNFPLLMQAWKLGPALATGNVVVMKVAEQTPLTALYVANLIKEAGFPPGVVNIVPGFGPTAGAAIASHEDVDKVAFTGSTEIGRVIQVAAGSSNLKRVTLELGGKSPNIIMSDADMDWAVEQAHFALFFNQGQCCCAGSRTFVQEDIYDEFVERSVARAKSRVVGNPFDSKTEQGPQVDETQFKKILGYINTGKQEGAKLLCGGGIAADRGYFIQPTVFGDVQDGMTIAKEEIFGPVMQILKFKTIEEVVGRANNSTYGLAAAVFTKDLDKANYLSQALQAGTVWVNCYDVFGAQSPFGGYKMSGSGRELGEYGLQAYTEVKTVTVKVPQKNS

Schistosoma mansoni [26] = test: Antischistosomal activity against Schistosoma mansoni couple assessed as decrease in total number of eggs measured after 72 hrs; format: functional, organism-based; conditions: dose 1-200 µM
Schistosoma mansoni [27] = test: Downregulation of Smnanos1 transcript level in Schistosoma mansoni female at 10 to 25 uM measured after 72 hrs by qRT-PCR analysis; format: functional; conditions: dose 10-25 µM
Schistosoma mansoni [28] = test: Upregulation of Smnanos2 transcript level in Schistosoma mansoni female at 10 uM measured after 72 hrs by qRT-PCR analysis; format: functional
Schistosoma mansoni [29] = test: Antischistosomal activity against Schistosoma mansoni couple assessed as decrease in couple attachment at 25 uM measured upto 3 days; format: functional, organism-based; conditions: time <= 3.0 day
Schistosoma mansoni [30] = test: Induction of morphological changes in Schistosoma mansoni couple assessed as formation of blebs at 10 to 25 uM by confocal laser scanning microscopy analysis; format: functional, organism-based; conditions: dose 10-25 µM
[31] = biological target: T1, Aldehyde dehydrogenase, mitochondrial (Homo sapiens); test: Inhibition of human ALDH2 at 100 uM in presence of NADPH
[32] = Inhibition of recombinant Schistosoma mansoni ALDH312 expressed in baculovirus Sf9 cells in presence of NADPH
[33] = Inhibition of recombinant Schistosoma mansoni ALDH312 expressed in baculovirus Sf9 cells at 50 uM in presence of NADPH relative to control

In the case of CCN(CC)C(=S)SSC(=S)N(CC)CC [DISULFIRAM], the Activity (Schistosoma mansoni [1]) is reported as “Active”, the Activity (Schistosoma mansoni [2]) is reported as 50% and the inhibition [3] is reported as 41.2%. For the same molecule, the Activity (Schistosoma mansoni [4]) was “Active”, the Activity (Schistosoma mansoni [5]) was “Active” and the Activity (Schistosoma mansoni [6]) was 100%. The Activity (Schistosoma mansoni [7]) was “Active”, the Activity (Schistosoma mansoni [8]) was “Active” and the Activity (Schistosoma mansoni [9]) was “inactive”. The Activity (Schistosoma mansoni [10]) was “Active”, the Activity (Schistosoma mansoni [11]) was “Active” and the Activity (Schistosoma mansoni [12]) was 50%. The Activity (Schistosoma mansoni [13]) was “Active”, the inhibition (Schistosoma mansoni [14]) was “Dose-Dependent Effect” and the Activity (Schistosoma mansoni [15]) was “inactive”. The Activity (Schistosoma mansoni [16]) was “Active”, the Activity (Schistosoma mansoni [17]) was “Active” and the Activity (Schistosoma mansoni [18]) was “Active”. For the same molecule, the Activity (Schistosoma mansoni [19]) was “inactive”, the Activity (Schistosoma mansoni [20]) was “inactive” and the Activity (Schistosoma mansoni [21]) was “Active”. The Activity (Schistosoma mansoni [22]) was “Active”, the Activity (Schistosoma mansoni [23]) was “Active” and the Activity (Schistosoma mansoni [24]) was “Active”. The inhibition [25] was 99%, the Activity (Schistosoma mansoni [26]) was “Dose-Dependent Effect” and the Activity (Schistosoma mansoni [27]) was “Active”. For the same molecule, the Activity (Schistosoma mansoni [28]) was “inactive”, the Activity (Schistosoma mansoni [29]) was “Active” and the Activity (Schistosoma mansoni [30]) was “Active”.
With O=C(Nc1ccc(C(F)(F)F)c(C(F)(F)F)c1)c1cc(Cl)ccc1O the inhibition [3] was 100%, the inhibition [31] was “inactive” and the IC50 [32] was 7.5 µM. For the same molecule, the inhibition [33] was 100%.
In the case of CN1CCC(NCc2cccc(-c3ccc(S(=O)(=O)NCc4ccccc4)cc3)c2)CC1, the inhibition [3] is reported as 80.4%, the inhibition [31] is reported as “inactive” and the IC50 [32] is reported as 21.8 µM.
In the case of CC(C)=CCC/C(C)=C\CNCCNC1C2CC3CC(C2)CC1C3 (stereo not given), the inhibition [3] is reported as 100%, the inhibition [31] is reported as “Active” and the IC50 [32] is reported as 12.5 µM.
